Patent publication US8901133B2, “Heterocyclic compounds and uses thereof” (Infinity Pharmaceuticals, Inc., priority 2010, dated 2014)

Tests used:
Assay type in all cases: biochemical
PI3Kδ = target: T1, PI3Kδ (Homo sapiens, UniProt O00329); test: PI3 Kinase HTRF assay, PI3Kδ; conditions: 10 μM PIP2, 10 μM ATP; read-out: PI3K δ IC50
T1 construct: purchased Millipore Corporation 14-604-K
Excerpt: (§1) A PI3 Kinase HTRF® assay kit (cat No. 33-016) purchased from Millipore Corporation was used to screen compounds disclosed herein. This assay used specific, high affinity binding of the GRP1 pleckstrin homology (PH) domain to PIP3, the product of a Class 1A or 1B PI3 Kinase acting on its physiological substrate PIP2. During the detection phase of the assay, a complex was generated between the GST-tagged PH domain and biotinylated short chain PIP3. The biotinylated PIP3 and the GST-tagged PH domain recruited fluorophores (Streptavidin-Allophycocyanin and Europium-labeled anti-GST respectively) to form the fluorescence resonance energy transfer (FRET) architecture, generating a stable time-resolved FRET signal. The FRET complex was disrupted in a competitive manner by non-biotinylated PIP3, a product formed in the PI3 Kinase assay.
(§2) PI3 Kinase α, β, γ and δ activity was assayed using the PI3 Kinase HTRF® assay kit (catalogue No. 33-016) purchased from Millipore Corporation. Purified recombinant PI3Kα (catalogue No. 14-602-K), PI3Kβ (catalogue No. 14-603-K), PI3Kγ (catalogue No. 14-558-K) and PI3Kδ (catalogue No. 14-604-K) were obtained from Millipore Corporation. Purified recombinant PI3K enzyme was used to catalyze the phosphorylation of phosphatidylinositol 4,5-bisphosphate (PIP2 at 10 μM) to phosphatidylinositol 3,4,5-trisphosphate (PIP3) in the presence of 10 μM ATP. The assay was carried out in 384-well format and detected using a Perkin Elmer En Vision Xcite Multilabel Reader. Emission ratios were converted into percent inhibitions and imported into GraphPad Prism software. The concentration necessary to achieve inhibition of enzyme activity by 50% (IC50) was calculated using concentrations ranging from 20 μM to 0.1 nM (12-point curve). IC50 values were determined using a nonlinear regression model available in GraphPad Prism 5. […]

PI3Kγ = target: T2, PI3Kγ (Homo sapiens, UniProt P48736); test: PI3 Kinase HTRF assay, PI3Kγ; conditions: 10 μM PIP2, 10 μM ATP; read-out: PI3K γ IC50
T2 construct: purchased Millipore Corporation 14-558-K
Excerpt: as §1, §2

PI3Kα = target: T3, PI3Kα (Homo sapiens, UniProt P42336); test: PI3 Kinase HTRF assay, PI3Kα; conditions: 10 μM PIP2, 10 μM ATP; read-out: PI3K α IC50
T3 construct: purchased Millipore Corporation 14-602-K
Excerpt: as §1, §2

PI3Kβ = target: T4, PI3Kβ (Homo sapiens, UniProt P42338); test: PI3 Kinase HTRF assay, PI3Kβ; conditions: 10 μM PIP2, 10 μM ATP; read-out: PI3K β IC50
T4 construct: purchased Millipore Corporation 14-603-K
Excerpt: as §1, §2

T1 sequence (O00329 whole entry): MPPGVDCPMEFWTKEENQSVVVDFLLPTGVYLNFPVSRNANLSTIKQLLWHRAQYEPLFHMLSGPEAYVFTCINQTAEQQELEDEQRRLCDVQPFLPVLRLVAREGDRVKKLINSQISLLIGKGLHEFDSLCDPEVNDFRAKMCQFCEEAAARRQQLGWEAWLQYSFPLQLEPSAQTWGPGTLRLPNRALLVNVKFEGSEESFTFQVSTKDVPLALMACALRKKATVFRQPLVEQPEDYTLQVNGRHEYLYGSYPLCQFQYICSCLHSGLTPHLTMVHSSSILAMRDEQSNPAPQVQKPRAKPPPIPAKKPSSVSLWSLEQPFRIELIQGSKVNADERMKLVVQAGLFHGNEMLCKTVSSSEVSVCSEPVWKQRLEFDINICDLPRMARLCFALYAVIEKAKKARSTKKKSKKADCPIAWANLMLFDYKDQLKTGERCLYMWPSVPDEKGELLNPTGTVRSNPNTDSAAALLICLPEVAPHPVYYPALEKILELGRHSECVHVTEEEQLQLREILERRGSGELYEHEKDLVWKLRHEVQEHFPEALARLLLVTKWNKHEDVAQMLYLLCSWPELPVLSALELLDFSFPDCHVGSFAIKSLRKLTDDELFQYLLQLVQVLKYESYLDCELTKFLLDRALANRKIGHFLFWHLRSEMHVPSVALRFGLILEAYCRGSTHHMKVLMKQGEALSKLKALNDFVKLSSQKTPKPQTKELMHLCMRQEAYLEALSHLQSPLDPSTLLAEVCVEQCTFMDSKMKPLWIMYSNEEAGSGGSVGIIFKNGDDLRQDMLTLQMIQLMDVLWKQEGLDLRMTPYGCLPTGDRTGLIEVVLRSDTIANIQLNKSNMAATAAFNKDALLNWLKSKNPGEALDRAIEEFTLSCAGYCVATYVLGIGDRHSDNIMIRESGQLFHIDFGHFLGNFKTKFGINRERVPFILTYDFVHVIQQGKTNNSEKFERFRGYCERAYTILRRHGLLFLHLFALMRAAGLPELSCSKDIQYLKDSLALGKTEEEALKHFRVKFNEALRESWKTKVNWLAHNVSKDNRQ
T1 sequence (P27986 whole entry partner): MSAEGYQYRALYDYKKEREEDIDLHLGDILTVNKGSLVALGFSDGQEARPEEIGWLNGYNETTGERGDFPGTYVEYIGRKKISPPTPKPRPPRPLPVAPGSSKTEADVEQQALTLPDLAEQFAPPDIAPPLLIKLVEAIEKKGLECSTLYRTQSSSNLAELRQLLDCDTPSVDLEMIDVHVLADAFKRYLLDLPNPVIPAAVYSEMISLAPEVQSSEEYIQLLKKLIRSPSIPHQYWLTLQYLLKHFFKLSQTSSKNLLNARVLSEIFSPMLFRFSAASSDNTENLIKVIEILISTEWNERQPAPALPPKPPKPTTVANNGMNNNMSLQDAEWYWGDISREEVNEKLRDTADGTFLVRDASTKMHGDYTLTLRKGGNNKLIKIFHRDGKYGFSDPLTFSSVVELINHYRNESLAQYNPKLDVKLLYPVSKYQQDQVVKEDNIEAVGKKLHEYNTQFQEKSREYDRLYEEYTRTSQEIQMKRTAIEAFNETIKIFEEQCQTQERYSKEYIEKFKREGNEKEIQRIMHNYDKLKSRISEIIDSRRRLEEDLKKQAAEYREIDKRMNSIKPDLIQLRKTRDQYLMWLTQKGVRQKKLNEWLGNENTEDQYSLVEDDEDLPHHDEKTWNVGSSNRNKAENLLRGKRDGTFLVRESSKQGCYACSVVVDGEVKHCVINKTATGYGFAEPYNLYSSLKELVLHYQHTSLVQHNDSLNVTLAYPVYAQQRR
T2 sequence (P48736 whole entry): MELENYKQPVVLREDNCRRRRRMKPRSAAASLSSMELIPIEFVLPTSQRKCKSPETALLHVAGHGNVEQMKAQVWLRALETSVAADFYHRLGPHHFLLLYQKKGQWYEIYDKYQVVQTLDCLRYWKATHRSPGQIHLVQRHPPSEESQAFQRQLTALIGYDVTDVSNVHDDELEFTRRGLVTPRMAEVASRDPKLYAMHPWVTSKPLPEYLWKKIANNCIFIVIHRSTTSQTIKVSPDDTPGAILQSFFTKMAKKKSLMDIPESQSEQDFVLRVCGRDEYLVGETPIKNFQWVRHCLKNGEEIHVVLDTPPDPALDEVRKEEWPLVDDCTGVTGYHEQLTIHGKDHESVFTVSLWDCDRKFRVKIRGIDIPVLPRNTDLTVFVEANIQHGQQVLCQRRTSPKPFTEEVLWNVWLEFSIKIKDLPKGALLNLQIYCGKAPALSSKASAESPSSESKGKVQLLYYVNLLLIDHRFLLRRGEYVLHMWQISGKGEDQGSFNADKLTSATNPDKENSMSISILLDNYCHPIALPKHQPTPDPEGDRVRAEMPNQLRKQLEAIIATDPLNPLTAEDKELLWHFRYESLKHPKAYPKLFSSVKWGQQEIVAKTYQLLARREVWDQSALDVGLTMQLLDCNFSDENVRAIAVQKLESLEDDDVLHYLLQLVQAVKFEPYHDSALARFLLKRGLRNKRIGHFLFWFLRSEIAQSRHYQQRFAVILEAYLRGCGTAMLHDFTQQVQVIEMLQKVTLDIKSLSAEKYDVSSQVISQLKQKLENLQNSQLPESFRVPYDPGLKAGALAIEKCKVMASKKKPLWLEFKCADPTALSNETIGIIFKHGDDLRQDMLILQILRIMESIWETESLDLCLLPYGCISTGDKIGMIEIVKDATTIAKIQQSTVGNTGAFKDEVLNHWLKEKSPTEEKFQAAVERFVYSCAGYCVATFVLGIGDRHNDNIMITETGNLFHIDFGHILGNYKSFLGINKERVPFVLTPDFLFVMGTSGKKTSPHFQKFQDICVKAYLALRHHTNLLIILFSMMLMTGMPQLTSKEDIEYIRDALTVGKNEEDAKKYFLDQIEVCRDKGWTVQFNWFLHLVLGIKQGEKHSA
T4 sequence (P42338 whole entry): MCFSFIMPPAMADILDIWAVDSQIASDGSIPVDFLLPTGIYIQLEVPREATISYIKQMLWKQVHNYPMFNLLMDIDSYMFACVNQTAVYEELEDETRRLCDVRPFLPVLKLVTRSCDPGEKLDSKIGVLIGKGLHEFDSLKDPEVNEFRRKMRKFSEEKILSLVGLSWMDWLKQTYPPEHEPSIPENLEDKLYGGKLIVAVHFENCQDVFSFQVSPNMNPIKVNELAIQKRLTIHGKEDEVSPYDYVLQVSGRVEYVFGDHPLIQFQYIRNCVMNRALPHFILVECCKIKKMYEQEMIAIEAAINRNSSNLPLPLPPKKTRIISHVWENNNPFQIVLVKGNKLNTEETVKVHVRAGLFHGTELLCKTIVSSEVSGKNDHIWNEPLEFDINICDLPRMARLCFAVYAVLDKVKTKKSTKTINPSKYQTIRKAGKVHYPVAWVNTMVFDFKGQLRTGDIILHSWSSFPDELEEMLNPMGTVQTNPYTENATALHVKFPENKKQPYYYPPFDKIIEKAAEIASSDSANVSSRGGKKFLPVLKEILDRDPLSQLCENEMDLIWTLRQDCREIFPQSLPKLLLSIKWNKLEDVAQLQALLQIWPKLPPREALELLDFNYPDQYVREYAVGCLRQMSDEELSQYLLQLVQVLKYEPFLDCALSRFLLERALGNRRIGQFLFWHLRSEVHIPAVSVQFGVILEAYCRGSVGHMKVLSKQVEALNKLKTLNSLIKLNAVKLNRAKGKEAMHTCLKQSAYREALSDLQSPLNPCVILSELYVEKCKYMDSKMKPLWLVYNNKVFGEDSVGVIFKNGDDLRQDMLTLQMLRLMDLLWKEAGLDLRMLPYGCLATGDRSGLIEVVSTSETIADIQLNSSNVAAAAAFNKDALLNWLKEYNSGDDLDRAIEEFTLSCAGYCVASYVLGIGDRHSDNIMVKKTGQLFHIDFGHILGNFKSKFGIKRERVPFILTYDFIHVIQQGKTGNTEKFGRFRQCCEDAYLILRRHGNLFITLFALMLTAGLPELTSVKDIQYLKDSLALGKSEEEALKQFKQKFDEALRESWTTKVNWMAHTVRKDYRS
T4 sequence (P27986 whole entry partner): as the sequence (P27986 whole entry partner) above
T3 sequence (P42336 whole entry): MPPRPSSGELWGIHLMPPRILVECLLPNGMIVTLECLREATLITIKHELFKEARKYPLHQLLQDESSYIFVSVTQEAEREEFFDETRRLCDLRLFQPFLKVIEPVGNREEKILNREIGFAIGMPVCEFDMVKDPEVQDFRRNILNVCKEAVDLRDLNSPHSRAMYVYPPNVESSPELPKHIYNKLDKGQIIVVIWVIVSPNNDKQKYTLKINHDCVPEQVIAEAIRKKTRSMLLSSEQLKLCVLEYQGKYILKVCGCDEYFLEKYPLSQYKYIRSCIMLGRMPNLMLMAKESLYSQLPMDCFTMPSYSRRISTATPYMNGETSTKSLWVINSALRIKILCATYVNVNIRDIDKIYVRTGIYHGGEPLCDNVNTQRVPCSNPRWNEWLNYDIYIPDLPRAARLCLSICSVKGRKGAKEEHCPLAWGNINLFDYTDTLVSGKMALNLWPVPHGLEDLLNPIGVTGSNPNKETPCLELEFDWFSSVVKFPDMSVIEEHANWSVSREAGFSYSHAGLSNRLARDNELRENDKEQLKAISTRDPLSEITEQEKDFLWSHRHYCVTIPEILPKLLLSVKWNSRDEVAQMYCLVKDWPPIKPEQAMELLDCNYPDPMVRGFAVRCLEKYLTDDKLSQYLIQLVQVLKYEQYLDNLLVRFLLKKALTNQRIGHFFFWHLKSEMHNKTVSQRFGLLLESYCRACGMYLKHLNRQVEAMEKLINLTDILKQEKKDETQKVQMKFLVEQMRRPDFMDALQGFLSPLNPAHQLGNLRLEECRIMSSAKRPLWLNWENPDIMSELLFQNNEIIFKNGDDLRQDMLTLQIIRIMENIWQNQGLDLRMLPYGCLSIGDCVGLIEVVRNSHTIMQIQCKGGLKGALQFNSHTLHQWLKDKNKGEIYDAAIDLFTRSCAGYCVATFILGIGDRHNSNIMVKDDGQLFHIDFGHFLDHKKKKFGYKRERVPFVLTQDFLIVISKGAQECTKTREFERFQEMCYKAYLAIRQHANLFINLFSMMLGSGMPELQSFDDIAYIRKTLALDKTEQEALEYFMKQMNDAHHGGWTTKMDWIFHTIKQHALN
T3 sequence (P27986 whole entry partner): as the sequence (P27986 whole entry partner) above

IC50 (PI3Kδ)	IC50 (PI3Kγ)	IC50 (PI3Kα)	IC50 (PI3Kβ)	Compound
< 1 µM	< 10 µM	> 10 µM	< 10 µM	C[C@H](NC(=O)c1nccnc1N)c1cc2cccc(Cl)c2c(C(=O)N2CCOCC2)n1 [Compound 118]
< 10 µM	> 10 µM	> 10 µM	> 10 µM	C[C@H](Nc1cc(Cl)nn2ccnc12)c1cc2cccc(Cl)c2c(CCN2CCOCC2)n1 [Compound 76, (S)-6-chloro-N-(1-(8-chloro-1-(2-morpholinoethyl)isoquinolin-3-yl)ethyl)imidazo[1,2-b]pyridazin-8-amine]
< 1 µM	> 10 µM	> 10 µM	> 10 µM	C[C@H](Nc1ncnc2scnc12)c1cc2cccc(Cl)c2c(C(=O)NCC2CCOCC2)n1 [Compound 216]
< 0.1 µM	< 10 µM	> 10 µM	< 10 µM	C[C@H](Nc1nc(N)ncc1C(F)(F)F)c1cc2cccc(Cl)c2c(CCN2CCOCC2)n1 [Compound 130]
< 0.1 µM	< 1 µM	> 10 µM	> 10 µM	C[C@H](Nc1ncnc2[nH]cnc12)c1cc2cccc(Cl)c2c(C(=O)N2CCC(O)CC2)n1 [Compound 28]
–	< 10 µM	–	–	C[C@H](Nc1ncnc2scnc12)c1cc2cccc(Cl)c2c(C(=O)N2CCOC[C@H]2C)n1 [Compound 252]
< 0.1 µM	< 1 µM	< 1 µM	< 10 µM	C[C@H](Nc1ncnc2cccnc12)c1cc2cccc(Cl)c2c(OCCN2CCCC2)n1 [Compound 105]
< 1 µM	< 10 µM	> 10 µM	> 10 µM	C[C@H](Nc1nc(N)ncc1C(F)(F)F)c1cc2cccc(Cl)c2c(C(=O)N2CCOCC2)n1 [Compound 217]
< 1 µM	> 10 µM	> 10 µM	> 10 µM	C[C@H](Nc1ncnc2[nH]cnc12)c1cc2cccc(Cl)c2c(S(=O)(=O)CCN2CCOCC2)n1 [Compound 134]
< 0.1 µM	< 1 µM	< 10 µM	< 10 µM	C[C@H](Nc1ncnc2cccnc12)c1cc2cccc(Cl)c2c(C(=O)N2CCOCC2)n1 [Compound 115]
< 1 µM	< 1 µM	> 10 µM	> 10 µM	C[C@H](Nc1ncnc2cccnc12)c1cc2cccc(Cl)c2c(C(=O)N2CCOC[C@H]2C)n1 [Compound 245]
< 0.1 µM	< 1 µM	> 10 µM	< 10 µM	C[C@H](Nc1ncnc2[nH]cnc12)c1cc2cccc(Cl)c2c(C(=O)N2CC(O)C2)n1 [Compound 22]
< 1 µM	< 10 µM	> 10 µM	< 10 µM	C[C@H](Nc1ncnc2[nH]cnc12)c1cc2cccc(Cl)c2c(CN2CCC2)n1 [Compound 9]
< 0.1 µM	< 1 µM	< 10 µM	< 10 µM	C[C@H](Nc1ncnc2[nH]cnc12)c1cc2cccc(Cl)c2c(SCC[N+]2([O-])CCOCC2)n1 [Compound 94]
< 1 µM	< 1 µM	< 10 µM	> 10 µM	CC1CN(C(=O)c2nc([C@H](C)Nc3ncnc4cccnc34)cc3cccc(Cl)c23)CCO1 (stereo partly shown) [Compound 222]
< 1 µM	< 10 µM	> 10 µM	< 10 µM	C[C@H](Nc1ncnc2cccnc12)c1cc2cccc(-c3cnn(C)c3)c2c(N2CCN(C)CC2)n1 [Compound 243]
< 0.1 µM	< 10 µM	< 10 µM	< 1 µM	C[C@H](Nc1ncnc2scnc12)c1cc2cccc(Cl)c2c(CCN2CCOCC2)n1 [Compound 72, (S)—N-(1-(8-chloro-1-(2-morpholinoethyl)isoquinolin-3-yl)ethyl)thiazolo[5,4-d]pyrimidin-7-amine]

IC50 (PI3Kδ)	IC50 (PI3Kγ)	IC50 (PI3Kα)	IC50 (PI3Kβ)	Compound
< 1 µM	< 1 µM	> 10 µM	> 10 µM	C[C@H](Nc1ncnc2cccnc12)c1cc2cccc(Cl)c2c(C(=O)N2CCS(=O)(=O)CC2)n1 [Compound 219]
< 0.1 µM	< 10 µM	> 10 µM	> 10 µM	C[C@H](Nc1ncnc2[nH]cnc12)c1cc2cccc(Cl)c2c(C(=O)NC2CCOCC2)n1 [Compound 48]
< 0.1 µM	< 10 µM	< 10 µM	> 10 µM	Cc1nc([C@H](C)Nc2ncnc3[nH]cnc23)cc2cccc(-c3cnn(C)c3)c12 [Compound 171]
< 0.1 µM	> 10 µM	> 10 µM	< 10 µM	C[C@H](Nc1ccnc2ccnn12)c1cc2cccc(Cl)c2c(N2CCN(C)CC2)n1 [Compound 97]
< 1 µM	< 10 µM	< 10 µM	> 10 µM	C[C@H](Nc1ncnc2cccnc12)c1cc2cccc(-c3cnn(C)c3)c2c(CCN2CCOCC2)n1 [Compound 154]
< 0.1 µM	< 1 µM	< 10 µM	< 10 µM	C[C@H](Nc1ncnc2[nH]cc(C#N)c12)c1cc2cccc(Cl)c2c(C(=O)N2CCOCC2)n1 [Compound 203]
< 1 µM	< 10 µM	> 10 µM	< 10 µM	C[C@H](NC(=O)c1cnc2cccnn12)c1cc2cccc(Cl)c2c(C(=O)N2CCOCC2)n1 [Compound 117]
< 0.1 µM	< 1 µM	> 10 µM	< 10 µM	C[C@H](Nc1ncnc2scnc12)c1cc2cccc(Cl)c2c(C(=O)N2CCNC(=O)C2)n1 [Compound 218]
< 1 µM	< 10 µM	> 10 µM	> 10 µM	C[C@H](Nc1ncnc2[nH]cnc12)c1cc2cccc(Cl)c2c(C(=O)N(C)c2ccccc2)n1 [Compound 27]
< 1 µM	< 10 µM	> 10 µM	> 10 µM	C[C@H](Nc1ncnc2cccnc12)c1cc2cccc(Cl)c2c(C(=O)N2CCC(F)(F)CC2)n1 [Compound 226]
< 1 µM	< 10 µM	< 10 µM	> 10 µM	C[C@H](Nc1ncnc2cccnc12)c1cc2cccc(Cl)c2c(C(=O)N2CCC(O)CC2)n1 [Compound 233]
< 1 µM	< 10 µM	< 10 µM	> 10 µM	C[C@H](Nc1ncnc2cccnc12)c1cc2cccc(Cl)c2c(C(=O)N2CCCOCC2)n1 [Compound 231]
< 0.1 µM	< 10 µM	> 10 µM	< 10 µM	C[C@H](Nc1ccnc2ccnn12)c1cc2cccc(Cl)c2c(OCCN2CCCC2)n1 [Compound 106]
< 0.1 µM	< 10 µM	> 10 µM	> 10 µM	C[C@H](Nc1ncnc2scnc12)c1cc2cccc(Cl)c2c(C(=O)NC2CCOC2)n1 (stereo partly shown) [Compound 215]
> 10 µM	> 10 µM	> 10 µM	> 10 µM	Cc1nc([C@H](C)Nc2ncnc3[nH]cnc23)cc2cccc(C(=O)N3CCN(C)CC3)c12 [Compound 202]
–	< 1 µM	–	–	C[C@H](Nc1ncnc2cccnc12)c1cc2cccc(Cl)c2c(C(=O)N2CCOC[C@H]2C)n1 [Compound 251]

Compound	IC50 (PI3Kδ)	IC50 (PI3Kγ)	IC50 (PI3Kα)	IC50 (PI3Kβ)
Cc1nc([C@H](C)Nc2ncnc3[nH]cnc23)cc2cccc(C(=O)N3C4CCC3COC4)c12 [Compound 199]	< 10 µM	> 10 µM	> 10 µM	> 10 µM
